Measured values taken from patent US8927533B2, “Thio derivatives bearing lactams as potent HDAC inhibitors and their uses as medicaments” (SIGMA-TAU Industrie Farmaceutiche Riunite S.p.A., priority 2011, dated 2015).
Read-outs that look alike come from different tables or passages of the source.

How the values were obtained:
Type in all cases: biochemical
[1] = biological target: HDAC1 (Homo sapiens, UniProt Q13547); experiment: HDAC enzymatic assay, HDAC1
Description: (§1) Each compound was dissolved in DMSO, and progressively diluted solutions were used for testing. […] Upon its deacetylation, the fluorophore was released given rise to fluorescence emission which was detected by a fluorimeter, and the IC50 values of the compounds were determined by analyzing dose-response inhibition curves.

[2] = biological target: HDAC2 (Homo sapiens, UniProt Q92769); experiment: HDAC enzymatic assay, HDAC2
Chain of HDAC2 (Q92769 whole entry): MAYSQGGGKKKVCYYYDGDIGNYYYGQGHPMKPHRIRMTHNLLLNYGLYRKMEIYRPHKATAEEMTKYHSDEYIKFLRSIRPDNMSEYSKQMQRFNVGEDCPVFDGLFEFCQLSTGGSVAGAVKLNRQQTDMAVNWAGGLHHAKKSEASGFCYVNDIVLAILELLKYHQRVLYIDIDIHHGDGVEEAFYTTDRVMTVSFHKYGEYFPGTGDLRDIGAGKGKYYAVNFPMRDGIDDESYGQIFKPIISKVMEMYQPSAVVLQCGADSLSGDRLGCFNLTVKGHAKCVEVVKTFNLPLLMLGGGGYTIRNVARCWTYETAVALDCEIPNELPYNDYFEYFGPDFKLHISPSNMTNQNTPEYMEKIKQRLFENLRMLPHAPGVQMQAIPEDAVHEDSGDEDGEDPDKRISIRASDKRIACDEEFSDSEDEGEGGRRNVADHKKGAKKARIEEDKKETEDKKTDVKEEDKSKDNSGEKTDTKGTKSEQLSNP
Description: as §1

[3] = biological target: T1, HDAC3 (complex of full length human HDAC3 with human NCOR2 amino acids 395-489) (Homo sapiens, UniProt O15379); experiment: HDAC enzymatic assay, HDAC3
T1 construct: complex of full length human HDAC3 with a C-terminal His-tag; His-tag (C); host or cells: baculovirus expression system
T1 sequence (O15379 whole entry, the tested form may be a part): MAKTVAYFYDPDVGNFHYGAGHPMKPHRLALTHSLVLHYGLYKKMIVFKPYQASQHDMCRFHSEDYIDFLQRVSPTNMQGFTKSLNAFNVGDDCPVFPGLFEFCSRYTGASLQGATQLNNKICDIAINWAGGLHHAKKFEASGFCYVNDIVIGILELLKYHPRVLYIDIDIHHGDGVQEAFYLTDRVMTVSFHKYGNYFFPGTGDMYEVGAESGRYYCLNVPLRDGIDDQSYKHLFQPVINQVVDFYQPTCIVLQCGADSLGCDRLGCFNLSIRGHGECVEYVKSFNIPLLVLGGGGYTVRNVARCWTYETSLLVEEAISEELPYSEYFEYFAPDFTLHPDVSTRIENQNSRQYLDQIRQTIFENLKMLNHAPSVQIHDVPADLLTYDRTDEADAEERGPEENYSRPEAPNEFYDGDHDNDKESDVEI
T1 sequence (Q9Y618 395-489 partner limits assumed): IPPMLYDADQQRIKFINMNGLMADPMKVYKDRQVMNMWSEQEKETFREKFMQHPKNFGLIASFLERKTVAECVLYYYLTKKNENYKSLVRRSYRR
Description: as §1

[4] = biological target: HDAC4 (Homo sapiens, UniProt P56524); experiment: HDAC enzymatic assay, HDAC4
Chain of HDAC4 (P56524 whole entry): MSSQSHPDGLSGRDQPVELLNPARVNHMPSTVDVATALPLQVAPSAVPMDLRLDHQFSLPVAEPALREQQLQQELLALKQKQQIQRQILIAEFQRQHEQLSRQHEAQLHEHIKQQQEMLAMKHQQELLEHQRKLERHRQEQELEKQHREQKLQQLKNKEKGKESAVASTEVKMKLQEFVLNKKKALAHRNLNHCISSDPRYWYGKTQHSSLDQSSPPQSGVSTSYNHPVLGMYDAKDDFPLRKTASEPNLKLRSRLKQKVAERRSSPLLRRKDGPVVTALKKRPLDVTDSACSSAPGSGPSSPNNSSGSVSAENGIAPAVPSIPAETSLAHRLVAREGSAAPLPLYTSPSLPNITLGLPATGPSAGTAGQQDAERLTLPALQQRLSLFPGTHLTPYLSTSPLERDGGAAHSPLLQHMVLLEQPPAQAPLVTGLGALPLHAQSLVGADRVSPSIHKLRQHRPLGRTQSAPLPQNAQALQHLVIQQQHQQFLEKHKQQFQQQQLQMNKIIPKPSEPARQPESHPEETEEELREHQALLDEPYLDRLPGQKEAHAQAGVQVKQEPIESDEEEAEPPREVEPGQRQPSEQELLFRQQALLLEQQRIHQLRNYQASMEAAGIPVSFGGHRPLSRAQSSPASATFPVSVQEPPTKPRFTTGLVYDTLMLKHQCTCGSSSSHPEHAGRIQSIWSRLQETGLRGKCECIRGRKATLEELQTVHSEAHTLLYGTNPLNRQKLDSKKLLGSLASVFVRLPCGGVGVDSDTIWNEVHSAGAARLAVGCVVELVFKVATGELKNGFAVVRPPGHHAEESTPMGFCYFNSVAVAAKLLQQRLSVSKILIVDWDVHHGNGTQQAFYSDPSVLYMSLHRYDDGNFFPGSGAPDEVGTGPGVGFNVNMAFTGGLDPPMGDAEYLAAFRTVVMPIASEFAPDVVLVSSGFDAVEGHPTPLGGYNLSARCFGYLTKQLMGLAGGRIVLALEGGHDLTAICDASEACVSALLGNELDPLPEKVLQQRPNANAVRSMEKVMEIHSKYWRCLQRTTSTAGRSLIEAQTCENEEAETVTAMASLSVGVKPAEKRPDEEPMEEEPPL
Description: as §1

[5] = biological target: T2, HDAC6 (Homo sapiens, UniProt Q9UBN7); experiment: HDAC enzymatic assay, HDAC6
T2 sequence (Q9UBN7 1-1215): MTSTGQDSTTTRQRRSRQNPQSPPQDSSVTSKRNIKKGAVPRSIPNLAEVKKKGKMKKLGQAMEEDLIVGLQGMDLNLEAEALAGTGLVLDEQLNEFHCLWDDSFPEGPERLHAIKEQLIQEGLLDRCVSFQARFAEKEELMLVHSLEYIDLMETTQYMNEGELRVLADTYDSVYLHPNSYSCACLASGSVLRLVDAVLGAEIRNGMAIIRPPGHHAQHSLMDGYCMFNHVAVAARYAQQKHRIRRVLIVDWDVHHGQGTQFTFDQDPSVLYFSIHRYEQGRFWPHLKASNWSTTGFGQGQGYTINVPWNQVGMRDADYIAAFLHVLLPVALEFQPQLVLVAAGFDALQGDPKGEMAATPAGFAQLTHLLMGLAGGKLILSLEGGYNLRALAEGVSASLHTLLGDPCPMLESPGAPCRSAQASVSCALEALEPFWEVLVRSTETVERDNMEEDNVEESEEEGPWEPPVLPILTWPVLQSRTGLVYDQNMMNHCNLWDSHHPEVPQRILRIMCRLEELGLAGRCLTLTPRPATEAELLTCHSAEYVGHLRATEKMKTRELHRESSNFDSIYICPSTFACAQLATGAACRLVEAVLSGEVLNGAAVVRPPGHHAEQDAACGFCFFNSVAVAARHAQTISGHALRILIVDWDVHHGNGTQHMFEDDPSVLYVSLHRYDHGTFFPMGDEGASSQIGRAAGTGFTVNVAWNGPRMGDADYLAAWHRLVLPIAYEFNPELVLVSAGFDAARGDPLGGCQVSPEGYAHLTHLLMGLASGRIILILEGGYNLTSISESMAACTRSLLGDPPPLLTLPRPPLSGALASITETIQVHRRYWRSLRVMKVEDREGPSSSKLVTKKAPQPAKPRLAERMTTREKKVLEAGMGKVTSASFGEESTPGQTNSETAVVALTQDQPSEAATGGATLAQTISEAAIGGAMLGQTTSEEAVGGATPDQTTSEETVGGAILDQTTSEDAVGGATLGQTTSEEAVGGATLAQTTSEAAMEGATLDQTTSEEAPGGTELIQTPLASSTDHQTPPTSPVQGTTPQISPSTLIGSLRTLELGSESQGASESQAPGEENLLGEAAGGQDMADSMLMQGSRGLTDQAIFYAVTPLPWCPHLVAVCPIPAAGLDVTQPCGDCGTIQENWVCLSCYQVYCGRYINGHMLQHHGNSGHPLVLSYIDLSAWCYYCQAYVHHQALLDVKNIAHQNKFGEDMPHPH
Description: as §1

[6] = biological target: T3, HDAC10 (Homo sapiens, UniProt Q969S8); experiment: HDAC enzymatic assay, HDAC10
T3 sequence (Q969S8 1-669): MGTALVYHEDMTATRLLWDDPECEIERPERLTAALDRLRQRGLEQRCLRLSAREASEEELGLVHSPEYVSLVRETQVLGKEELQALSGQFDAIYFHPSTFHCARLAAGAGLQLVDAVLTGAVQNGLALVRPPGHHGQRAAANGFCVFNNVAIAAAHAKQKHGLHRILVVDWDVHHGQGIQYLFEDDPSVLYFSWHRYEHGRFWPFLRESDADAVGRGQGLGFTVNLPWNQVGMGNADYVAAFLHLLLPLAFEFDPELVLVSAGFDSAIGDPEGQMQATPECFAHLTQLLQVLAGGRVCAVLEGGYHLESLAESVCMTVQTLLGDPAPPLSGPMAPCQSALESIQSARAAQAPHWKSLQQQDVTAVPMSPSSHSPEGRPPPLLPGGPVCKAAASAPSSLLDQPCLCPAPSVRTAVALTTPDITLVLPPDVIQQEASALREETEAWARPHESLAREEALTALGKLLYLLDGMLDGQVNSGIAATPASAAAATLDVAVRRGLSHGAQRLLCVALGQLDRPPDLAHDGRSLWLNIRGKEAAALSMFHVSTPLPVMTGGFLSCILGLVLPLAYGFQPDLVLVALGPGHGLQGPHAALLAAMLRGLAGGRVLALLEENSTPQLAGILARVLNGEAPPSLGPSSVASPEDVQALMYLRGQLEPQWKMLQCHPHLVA
Description: as §1

[7] = biological target: T4, HDAC11 (Homo sapiens, UniProt Q96DB2); experiment: HDAC enzymatic assay, HDAC11
T4 sequence (Q96DB2 1-347): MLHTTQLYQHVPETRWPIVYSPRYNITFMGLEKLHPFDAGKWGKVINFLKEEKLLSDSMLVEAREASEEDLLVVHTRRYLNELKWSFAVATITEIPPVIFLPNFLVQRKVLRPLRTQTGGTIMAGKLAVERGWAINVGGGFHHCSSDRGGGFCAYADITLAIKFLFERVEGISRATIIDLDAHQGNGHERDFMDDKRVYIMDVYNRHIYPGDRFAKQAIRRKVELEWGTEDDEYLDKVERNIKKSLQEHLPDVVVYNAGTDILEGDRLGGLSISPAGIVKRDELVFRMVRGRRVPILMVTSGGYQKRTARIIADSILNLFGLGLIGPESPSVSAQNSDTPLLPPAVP
Description: as §1

[8] = fluorogenic tetrapeptide RHKKAc substrate 10 μM, read-out: HDAC isoforms IC50 (nM), 1
[9] = fluorogenic tetrapeptide RHKKAc substrate 10 μM, read-out: HDAC isoforms IC50 (nM), 2
[10] = fluorogenic tetrapeptide RHKKAc substrate 10 μM, read-out: HDAC isoforms IC50 (nM), 3
[11] = fluorogenic tetrapeptide RHKKAc substrate 10 μM, read-out: HDAC isoforms IC50 (nM), 4
[12] = fluorogenic tetrapeptide RHKKAc substrate 10 μM, read-out: HDAC isoforms IC50 (nM), 6
[13] = fluorogenic tetrapeptide RHKKAc substrate 10 μM, read-out: HDAC isoforms IC50 (nM), 10
[14] = fluorogenic tetrapeptide RHKKAc substrate 10 μM, read-out: HDAC isoforms IC50 (nM), 11

Chain of HDAC1 (Q13547 whole entry): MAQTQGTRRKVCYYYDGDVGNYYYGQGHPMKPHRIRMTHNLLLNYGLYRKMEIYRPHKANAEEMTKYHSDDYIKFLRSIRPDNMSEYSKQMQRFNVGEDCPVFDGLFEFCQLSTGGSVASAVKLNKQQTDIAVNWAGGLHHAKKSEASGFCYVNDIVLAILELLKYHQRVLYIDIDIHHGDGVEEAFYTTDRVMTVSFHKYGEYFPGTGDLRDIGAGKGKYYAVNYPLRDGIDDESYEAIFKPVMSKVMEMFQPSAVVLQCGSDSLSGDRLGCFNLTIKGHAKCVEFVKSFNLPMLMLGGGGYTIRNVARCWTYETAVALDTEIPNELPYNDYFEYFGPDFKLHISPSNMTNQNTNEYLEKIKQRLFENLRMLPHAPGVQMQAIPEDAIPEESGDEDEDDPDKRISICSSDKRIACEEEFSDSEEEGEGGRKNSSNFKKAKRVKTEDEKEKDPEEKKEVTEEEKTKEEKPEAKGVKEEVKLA

Row | SMILES | IC50 ([1]; Table 2, thio (SH) vs hydroxamate (CONHOH) MBG analogues, read-out: HDAC isoforms, 1 (IC50)) | IC50 ([2]; Table 2, thio (SH) vs hydroxamate (CONHOH) MBG analogues, read-out: HDAC isoforms, 2 (IC50)) | IC50 ([3]; Table 2, thio (SH) vs hydroxamate (CONHOH) MBG analogues, read-out: HDAC isoforms, 3 (IC50)) | IC50 ([4]; Table 2, thio (SH) vs hydroxamate (CONHOH) MBG analogues, read-out: HDAC isoforms, 4 (IC50)) | IC50 ([5]; Table 2, thio (SH) vs hydroxamate (CONHOH) MBG analogues, read-out: HDAC isoforms, 6 (IC50)) | IC50 ([6]; Table 2, thio (SH) vs hydroxamate (CONHOH) MBG analogues, read-out: HDAC isoforms, 10 (IC50)) | IC50 ([7]; Table 2, thio (SH) vs hydroxamate (CONHOH) MBG analogues, read-out: HDAC isoforms, 11 (IC50)) | IC50 [1, 8] | IC50 [2, 9] | IC50 [3, 10] | IC50 [4, 11] | IC50 [5, 12] | IC50 [6, 13] | IC50 [7, 14]
1 | CC(=O)SCCCCC[C@H](NC(=O)[C@H]1CCC(=O)N1)C(=O)Nc1ccccc1 [Example 21, Thioacetic acid S—{(S)-6-[((R)-5-oxo-pyrrolidine-2-carbonyl)-amino]-6-phenylcarbamoyl-hexyl}ester] | < 50 nM | 50 to 100 nM | < 50 nM | < 50 nM | < 50 nM | < 50 nM | < 50 nM |  |  |  |  |  |  | 
2 | O=C1CCC[C@@H](C(=O)N[C@@H](CCCCCS)C(=O)Nc2ccccc2)N1 [Example 23, (S)-6-Oxo-piperidine-2-carboxylic acid ((S)-6-mercapto-1-phenylcarbamoyl-hexyl)amide] |  |  |  |  |  |  |  | < 50 nM | 50 to 100 nM | < 50 nM | < 50 nM | < 50 nM | < 50 nM | < 50 nM
3 | O=C1CCC[C@@H](C(=O)N[C@@H](CCCCCS)C(=O)NC2CCCC2)N1 [Example 24, (S)-6-Oxo-piperidine-2-carboxylic acid ((S)-1-cyclopentylcarbamoyl-6-mercapto-hexyl)amide] |  |  |  |  |  |  |  | 100 to 500 nM | 100 to 500 nM | 50 to 100 nM | < 50 nM | < 50 nM | 100 to 500 nM | 50 to 100 nM
4 | O=C1CCC[C@@H](C(=O)N[C@@H](CCCCCS)C(=O)NCc2cccc(OCc3ccccc3)c2)N1 [Example 25, (S)-6-Oxo-piperidine-2-carboxylic acid [(S)-1-(3-benzyloxy-benzylcarbamoyl)-6-mercapto-hexyl]-amide] |  |  |  |  |  |  |  | 100 to 500 nM | 100 to 500 nM | 100 to 500 nM | 100 to 500 nM | 50 to 100 nM | 100 to 500 nM | 100 to 500 nM
5 | O=C1CCC[C@@H](C(=O)N[C@@H](CCCCCS)C(=O)NCc2ccc(C(F)(F)F)cc2)N1 [Example 26, (S)-6-Oxo-piperidine-2-carboxylic acid [(S)-6-mercapto-1-(4-trifluoromethyl-benzylcarbamoyl)-hexyl]-amide] |  |  |  |  |  |  |  | 100 to 500 nM | 100 to 500 nM | 100 to 500 nM | < 50 nM | 100 to 500 nM | 100 to 500 nM | 100 to 500 nM
